Where “and” joins values, the source holds several entries; their conditions need not be identical. Equal values may be shown once.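 Five concentrations, 48 hours, 96-well plates. GI50: concentration for 50% inhibition of growth. TGI denotes the concentration required for complete inhibition of growth.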
Columns and labels:
Assay in all cases: inhibition of tumour cell growth, NCI panel, 48 h
BT-549 breast = test system: BT-549 breast
DMS 114 small cell lung = test system: DMS 114 small cell lung
EKVX NSCLC = test system: EKVX NSCLC
HL-60(TB) leukemia = test system: HL-60(TB) leukemia
HT29 colon = test system: HT29 colon
M19-MEL melanoma = test system: M19-MEL melanoma
OVCAR-4 ovarian = test system: OVCAR-4 ovarian
OVCAR-8 ovarian = test system: OVCAR-8 ovarian
SF-268 CNS = test system: SF-268 CNS
SNB-19 CNS = test system: SNB-19 CNS

CCOC(=O)NC1=C(N2CC2)C(=O)C(NC(=O)OCC)=C(N2CC2)C1=O
TGI (BT-549 breast): 25 µM
GI50 (DMS 114 small cell lung): 3.49 µM
TGI (DMS 114 small cell lung): 7.85 µM and 7.33 µM
GI50 (EKVX NSCLC): 24.2 µM
TGI (EKVX NSCLC): 25 µM and 16.1 µM
GI50 (HL-60(TB) leukemia): 1.85 µM and 0.403 µM
TGI (HL-60(TB) leukemia): 11 µM and 4 µM and 1.49 µM
GI50 (HT29 colon): 14.5 µM and 9.07 µM
TGI (HT29 colon): 25 µM and 47.3 µM and 70.2 µM
TGI (M19-MEL melanoma): 19.2 µM and 12.5 µM
GI50 (OVCAR-4 ovarian): 12.8 µM and 7 µM
TGI (OVCAR-4 ovarian): 24 µM and 11.8 µM and 17.7 µM
GI50 (OVCAR-8 ovarian): 4.71 µM
TGI (OVCAR-8 ovarian): 14.3 µM and 14.5 µM
GI50 (SF-268 CNS): 5.55 µM and 4.88 µM
TGI (SF-268 CNS): 25 µM and 20.7 µM and 26.9 µM
GI50 (SNB-19 CNS): 6.66 µM
TGI (SNB-19 CNS): 25 µM and 30.2 µM

CC(C)[NH-].CC(C)[NH-].O.O.[Cl][Pt+2][Cl]
GI50 (BT-549 breast): 56 µM
TGI (BT-549 breast): 266 µM
GI50 (DMS 114 small cell lung): 10.9 µM
TGI (DMS 114 small cell lung): 44.1 µM
GI50 (EKVX NSCLC): 66.7 µM
TGI (EKVX NSCLC): 203 µM
GI50 (HL-60(TB) leukemia): 15.3 µM
TGI (HL-60(TB) leukemia): 83.7 µM
GI50 (HT29 colon): 12.7 µM
TGI (HT29 colon): 83.8 µM
GI50 (M19-MEL melanoma): 21.3 µM
TGI (M19-MEL melanoma): 77.1 µM
GI50 (OVCAR-4 ovarian): 28.7 µM
TGI (OVCAR-4 ovarian): 106 µM
GI50 (OVCAR-8 ovarian): 36.5 µM
TGI (OVCAR-8 ovarian): 167 µM
GI50 (SF-268 CNS): 38.1 µM
TGI (SF-268 CNS): 231 µM
GI50 (SNB-19 CNS): 70.9 µM
TGI (SNB-19 CNS): 314 µM

O=C(NCCCCCCNC(=O)n1cc(F)c(=O)[nH]c1=O)NCCCOCCOCCOCCOCCOCCOCCOCCOCCOCCOCCOCCOCCOCCOCCOCCOCCOCCOCCOCCOCCOCCCNC(=O)C(O)C(O)C(OC1OC(CO)C(O)C(O)C1O)C(O)CO (stereo not given)
TGI (BT-549 breast): > 100 µM
TGI (DMS 114 small cell lung): > 100 µM
TGI (EKVX NSCLC): > 100 µM
TGI (HL-60(TB) leukemia): > 100 µM
TGI (HT29 colon): > 100 µM
TGI (M19-MEL melanoma): > 100 µM
TGI (OVCAR-4 ovarian): > 100 µM
TGI (OVCAR-8 ovarian): > 100 µM
TGI (SF-268 CNS): > 100 µM
TGI (SNB-19 CNS): > 100 µM

CC(=O)OC1CC[C@@]2(C)C(CC[C@]3(C)C2CC=C2[C@@H]4CC(C)(C)CCC4(C)CCC23C)[C@@]1(C)C(=O)O (stereo not given in full)
TGI (BT-549 breast): 50.1 µM
TGI (DMS 114 small cell lung): 40.2 µM
TGI (EKVX NSCLC): 39.5 µM
TGI (HL-60(TB) leukemia): 83.5 µM
TGI (HT29 colon): 38.9 µM
TGI (M19-MEL melanoma): 54 µM
TGI (OVCAR-4 ovarian): 40.2 µM
TGI (OVCAR-8 ovarian): 36.9 µM
TGI (SF-268 CNS): 46.7 µM
TGI (SNB-19 CNS): 47.3 µM

Cc1ccc(C(=O)N2CCN(C(=O)c3ccc(C)cc3)c3ccccc32)cc1
TGI (BT-549 breast): > 100 µM
TGI (DMS 114 small cell lung): 18 µM
TGI (EKVX NSCLC): > 100 µM
TGI (HL-60(TB) leukemia): 4.21 µM
TGI (HT29 colon): 21.3 µM
TGI (M19-MEL melanoma): > 100 µM
TGI (OVCAR-4 ovarian): > 100 µM
TGI (OVCAR-8 ovarian): > 100 µM
TGI (SF-268 CNS): > 100 µM
TGI (SNB-19 CNS): > 100 µM

Clc1cccc(N2CCN(CCN3CCc4c([nH]c5ccccc45)C3c3cccnc3)CC2)c1 (stereo not given)
TGI (BT-549 breast): > 100 µM
TGI (DMS 114 small cell lung): > 100 µM
TGI (EKVX NSCLC): 99.7 µM
TGI (HL-60(TB) leukemia): > 100 µM
TGI (HT29 colon): > 80.4 µM
TGI (M19-MEL melanoma): > 100 µM
TGI (OVCAR-4 ovarian): > 100 µM
TGI (OVCAR-8 ovarian): > 100 µM
TGI (SF-268 CNS): > 100 µM
TGI (SNB-19 CNS): > 100 µM

OC(C1CO1)C(O)C1CO1 (stereo not given)
GI50 (BT-549 breast): 29.5 µM
TGI (BT-549 breast): 84.7 µM and 299 µM
TGI (DMS 114 small cell lung): 150 µM
GI50 (EKVX NSCLC): 175 µM
TGI (EKVX NSCLC): 150 µM and 348 µM
GI50 (HL-60(TB) leukemia): 2.33 µM
TGI (HL-60(TB) leukemia): 65.2 µM and 49.5 µM
GI50 (HT29 colon): 97.7 µM
TGI (HT29 colon): 150 µM and 345 µM
TGI (M19-MEL melanoma): 150 µM
GI50 (OVCAR-4 ovarian): 134 µM
TGI (OVCAR-4 ovarian): 150 µM and 299 µM
TGI (OVCAR-8 ovarian): 115 µM and 453 µM
GI50 (SF-268 CNS): 27.4 µM and 27.5 µM
TGI (SF-268 CNS): 114 µM and 513 µM
GI50 (SNB-19 CNS): 107 µM
TGI (SNB-19 CNS): 139 µM and 334 µM

Reference: PubChem BioAssay (NCI)
